Values of other authors as cited in article PMC11214510 (Saudi Journal of Biological Sciences, 2024).

Test system: AChE
Conditions: mice, long-term supplementation, 40 mg/kg; ref Kasbe et al., 2015

In the case of `O=c1c2cc(O)c(O)cc2oc2cc(O)c([C@@H]3O[C@H](CO)[C@@H](O)[C@H](O)[C@H]3O)c(O)c12` [mangiferin], the “AChE expression produced by AlCl3” value is listed as “inhibits the expression of AChE”.
